Measurements: patent publication US20130090476A1, “Thiazolylpiperidine Derivatives as Fungicides” (priority 2009, published 2013)
Like-named read-outs stand apart in the source and are kept apart here. Marks after values point to notes of the source that are not given here.

Key:
[1] = logP determination by HPLC (EEC Directive 79/831 Annex V.A8), LC-MS
[2] = pH 2.7
[3] = pH 2.7, log P (pH2.7), pH 2.7, value given in the preparation text
[4] = pH 2.7, logP, * acidic range, pH 2.7, 0.1% aqueous formic acid/acetonitrile
[5] = * acidic range, pH 2.7, 0.1% aqueous formic acid/acetonitrile

## Cc1cc(C(F)(F)F)nn1CC(=O)N1CCC(c2nc(CSc3nnnn3-c3ccccc3)cs2)CC1 [Compound I-4, 2-[5-Methyl-3-(trifluoromethyl)-1H-pyrazol-1-yl]-1-[4-(4-{[(1-phenyl-1H-tetrazol-5-yl)sulphanyl]methyl}-1,3-thiazol-2-yl)piperidin-1-yl]ethanone]
[1]; [3]
  chromatographic logP: 3.25
[1]; [4]
  chromatographic logP: 3.25
[1]; pH 7.8, logP, ** neutral range, pH 7.8, 0.001 molar aqueous ammonium bicarbonate/acetonitrile
  chromatographic logP: 3.26

## Cc1cc(C(F)(F)F)nn1CC(=O)N1CCC(c2nc(C[S+]([O-])c3nnnn3-c3ccccc3)cs2)CC1 (stereo not shown) [Compound I-14, 2-[5-Methyl-3-(trifluoromethyl)-1H-pyrazol-1-yl]-1-[4-(4-{[(1-phenyl-1H-tetrazol-5-yl)sulphinyl]methyl}-1,3-thiazol-2-yl)piperidin-1-yl]ethanone]
[1]; [3]
  chromatographic logP: 2.69
[1]; [4]
  chromatographic logP: 2.69

## Cc1cc(C(F)(F)F)nn1CC(=O)N1CCC(c2nc(CSC34CC5CC(CC(C5)C3)C4)cs2)CC1 [Compound I-2, 1-[4-(4-{[(3S,5S,7S)-Adamantan-1-ylsulphanyl]methyl}-1,3-thiazol-2-yl)piperidin-1-yl]-2-[5-methyl-3-(trifluoromethyl)-1H-pyrazol-1-yl]ethanone]
[2]
  log P (pH2.7): 5.21
  logP: 5.21*

## CC(C)(C)OC(=O)N1CCC(c2nc(CSc3nnnn3-c3ccccc3)cs2)CC1 [IV-4, tert-Butyl 4-(4-{[(1-phenyl-1H-tetrazol-5-yl)sulphanyl]methyl}-1,3-thiazol-2-yl)piperidine-1-carboxylate]
[1]; [3]
  chromatographic logP: 3.91

## Cc1noc(C)c1NC(=O)N1CCC(c2nc(CSc3nnnn3-c3ccccc3)cs2)CC1 [Compound I-75]
[1]; [5]
  logP: 2.22*

## Fc1ccc(F)c(NC(=S)N2CCC(c3nc(CSc4nnnn4-c4ccccc4)cs3)CC2)c1 [Compound I-23]
[1]; [5]
  logP: 3.26*

## CC(C)(C)OC(=O)N1CCC(c2nc(CSc3cccc4ccccc34)cs2)CC1 [IV-1, tert-Butyl 4-{4-[(1-naphthylsulphanyl)methyl]-1,3-thiazol-2-yl}piperidine-1-carboxylate]
[1]; [3]
  chromatographic logP: 5.33

## CC(C)(C)OC(=O)N1CCC(c2nc(CI)cs2)CC1 [VI-1, tert-Butyl 4-[4-(iodomethyl)-1,3-thiazol-2-yl]piperidine-1-carboxylate]
[1]; [3]
  chromatographic logP: 3.71

## ClC1=NOC(c2ccccc2)C1 (stereo not shown) [Compound X-1, 3-Chloro-5-phenyl-4,5-dihydro-1,2-oxazole]
[1]; [3]
  chromatographic logP: 2.36

## O=C(Cn1nc(C(F)F)cc1C(F)F)N1CCC(c2nc(CSc3nccn3-c3ccccc3)cs2)CC1 [Compound I-65]
[1]; [5]
  logP: 2.13*

## O=C(Nc1cc(Cl)ccc1Cl)N1CCC(c2nc(CSc3nnnn3-c3ccccc3)cs2)CC1 [Compound I-49]
[2]
  logP: 3.95*

## CC(C)(C)OC(=O)N1CCC(c2nc(CSc3cccc4cccnc34)cs2)CC1 [IV-5, tert-Butyl 4-{4-[(quinolin-8-ylsulphanyl)methyl]-1,3-thiazol-2-yl}piperidine-1-carboxylate]
[1]; [3]
  chromatographic logP: 3.71

## Cc1cc(C(F)(F)F)nn1CC(=O)N1CCC(c2nc(C[S+]([O-])C3CCCCC3)cs2)CC1 (stereo not shown) [Compound I-11, 1-(4-{4-[(Cyclohexylsulphinyl)methyl]-1,3-thiazol-2-yl}piperidin-1-yl)-2-[5-methyl-3-(trifluoromethyl)-1H-pyrazol-1-yl]ethanone]
[1]; [3]
  chromatographic logP: 2.55
[1]; [4]
  chromatographic logP: 2.55

## Cc1ccc(F)cc1NC(=O)N1CCC(c2nc(CSc3nnnn3-c3ccccc3)cs2)CC1 [Compound I-63]
[1]; [5]
  logP: 3.2*

## O=C(Cn1nc(C(F)F)cc1C(F)F)N1CCC(c2nc(CSc3nnnn3-c3ccccc3)cs2)CC1 [Compound I-35]
[2]
  logP: 3.11*

## O=C(Cn1nc(C(F)(F)F)cc1C(F)(F)F)N1CCC(c2nc(CS(=O)(=O)c3nnnn3-c3ccccc3)cs2)CC1 [Compound I-26]
[1]; [5]
  logP: 3.59*

## Fc1ccc(Br)c(NC(=S)N2CCC(c3nc(CSc4nnnn4-c4ccccc4)cs3)CC2)c1 [Compound I-66]
[1]; [5]
  logP: 3.46*

## Cc1ccc(F)c(NC(=O)N2CCC(c3nc(CSc4nnnn4-c4ccccc4)cs3)CC2)c1 [Compound I-60]
[2]
  logP: 3.28*

## COc1ccc(Cl)cc1NC(=O)N1CCC(c2nc(CSc3nnnn3-c3ccccc3)cs2)CC1 [Compound I-79]
[1]; [5]
  logP: 3.8*

## Cc1ccc([N+](=O)[O-])cc1NC(=O)N1CCC(c2nc(CSc3nnnn3-c3ccccc3)cs2)CC1 [Compound I-18]
[2]
  logP: 3.09*

## S=C(Nc1cc(Cl)ccc1Cl)N1CCC(c2nc(CSc3nnnn3-c3ccccc3)cs2)CC1 [Compound I-52]
[1]; [5]
  logP: 3.77*

## O=C(Cn1nc(C(F)F)cc1C(F)F)N1CCC(c2nc(CS(=O)(=O)c3nnnn3-c3ccccc3)cs2)CC1 [Compound I-29]
[2]
  logP: 2.97*

## Cc1ccc(C)c(NC(=O)N2CCC(c3nc(CSC4CCCCC4)cs3)CC2)c1 [Compound I-16]
[1]; [5]
  logP: 4.38*

## Cc1ccc(C)c(CC(=O)N2CCC(c3nc(CSc4cccc5ccccc45)cs3)CC2)c1 [Compound I-43]
[1]; [5]
  logP: 4.86*

## Cc1ccc(C)c(CC(=O)N2CCC(c3nc(CSC45CC6CC(CC(C6)C4)C5)cs3)CC2)c1 [Compound I-27]
[1]; [5]
  logP: 5.99*

## O=C(Nc1cc(C(F)(F)F)ccc1Cl)N1CCC(c2nc(CSc3nnnn3-c3ccccc3)cs2)CC1 [Compound I-76]
[1]; [5]
  logP: 4.2*

## Cc1ccc(Cl)cc1NC(=O)N1CCC(c2nc(CSc3nnnn3-c3ccccc3)cs2)CC1 [Compound I-24]
[2]
  logP: 3.43*

## Cc1noc(C)c1NC(=S)N1CCC(c2nc(CSc3nnnn3-c3ccccc3)cs2)CC1 [Compound I-99]
[1]; [5]
  logP: 2.7*

## COc1ccc(C)cc1NC(=O)N1CCC(c2nc(CSc3nnnn3-c3ccccc3)cs2)CC1 [Compound I-33]
[2]
  logP: 3.5*

## O=C(Nc1cc(F)ccc1F)N1CCC(c2nc(CSc3nnnn3-c3ccccc3)cs2)CC1 [Compound I-56]
[1]; [5]
  logP: 3.27*

## Cc1cc(C(F)(F)F)nn1CC(=O)N1CCC(c2nc(CSc3cccc4cccnc34)cs2)CC1 [Compound I-5, 1-(4-{4-[(Quinolin-8-ylsulphanyl)methyl]-1,3-thiazol-2-yl}piperidin-1-yl)-2-[5-methyl-3-(trifluoromethyl)-1H-pyrazol-1-yl]ethanone]
[1]; [3]
  chromatographic logP: 3
[1]; [4]
  chromatographic logP: 3

## Cc1ccc(C)c(NC(=O)N2CCC(c3nc(CSc4cccc5ccccc45)cs3)CC2)c1 [Compound I-47]
[1]; [5]
  logP: 4.37*

## Cc1cc(C(F)(F)F)nn1CC(=O)N1CCC(c2nc(CSc3ccccc3-c3ccccc3)cs2)CC1 [Compound I-69]
[1]; [5]
  logP: 4.49*

## COc1ccc(OC)c(NC(=O)N2CCC(c3nc(CSc4nnnn4-c4ccccc4)cs3)CC2)c1 [Compound I-25]
[1]; [5]
  logP: 3.26*

## O=C(Cn1nc(C(F)F)cc1C(F)F)N1CCC(c2nc(CSc3ccccc3-c3ccccc3)cs2)CC1 [Compound I-19]
[1]; [5]
  logP: 4.36*

## Cc1ccc(Cl)c(NC(=O)N2CCC(c3nc(CSc4nnnn4-c4ccccc4)cs3)CC2)c1 [Compound I-87]
[2]
  logP: 3.72*

## Cc1ccc(C)c(NC(=O)N2CCC(c3nc(CSC45CC6CC(CC(C6)C4)C5)cs3)CC2)c1 [Compound I-72]
[2]
  logP: 5.38*

## O=C(Cn1nc(C(F)F)cc1C(F)F)N1CCC(c2nc(CSC3=NOC(c4ccccc4)C3)cs2)CC1 (stereo not shown) [Compound I-58, 2-[3,5-Bis(difluoromethyl)-1H-pyrazol-1-yl]-1-{4-[4-({[5-phenyl-4,5-dihydro-1,2-oxazol-3-yl]sulphanyl}methyl)-1,3-thiazol-2-yl]piperidin-1-yl}ethanone]
[1]; [3]
  chromatographic logP: 3.4
[1]; [4]
  chromatographic logP: 3.4

## Cc1cc(C(F)(F)F)nn1CC(=O)N1CCC(c2nc(CSc3nccn3-c3ccccc3)cs2)CC1 [Compound I-61]
[1]; [5]
  logP: 2.22*

## CC(C)(C)OC(=O)N1CCC(c2nc(CSC34CC5CC(CC(C5)C3)C4)cs2)CC1 [IV-2, tert-Butyl 4-(4-{[(3S,5S,7S)-adamantan-1-ylsulphanyl]methyl}-1,3-thiazol-2-yl)piperidine-1-carboxylate]
[1]; [3]
  chromatographic logP: 6.66

## O=C(Cc1cc(Cl)ccc1Cl)N1CCC(c2nc(CSc3nnnn3-c3ccccc3)cs2)CC1 [Compound I-46]
[2]
  logP: 3.8*

## CC(C)(C)OC(=O)N1CCC(c2nc(CSC3=NOC(c4ccccc4)C3)cs2)CC1 (stereo not shown) [IV-6, tert-Butyl 4-[4-({[5-phenyl-4,5-dihydro-1,2-oxazol-3-yl]sulphanyl}methyl)-1,3-thiazol-2-yl]piperidine-1-carboxylate]
[1]; [3]
  chromatographic logP: 4.25

## Cc1cc(C(F)(F)F)nn1CC(=O)N1CCC(c2nc(CS(=O)(=O)C34CC5CC(CC(C5)C3)C4)cs2)CC1 [Compound I-6, 1-[4-(4-{[(3S,5S,7S)-Adamantan-1-ylsulphonyl]methyl}-1,3-thiazol-2-yl)piperidin-1-yl]-2-[5-methyl-3-(trifluoromethyl)-1H-pyrazol-1-yl]ethanone]
[2]
  log P (pH2.7): 3.42
  logP: 3.4*

## Cc1cc(C(F)(F)F)nn1CC(=O)N1CCC(c2nc(CSC3=NOC(c4ccccc4)C3)cs2)CC1 (racemic) [Compound I-88]
[1]; [5]
  logP: 3.52*

## CC(C)(C)OC(=O)N1CCC(c2nc(CSC3CCCCC3)cs2)CC1 [IV-3, tert-Butyl 4-{4-[(cyclohexylsulphanyl)methyl]-1,3-thiazol-2-yl}piperidine-1-carboxylate]
[1]; [3]
  chromatographic logP: 5.45

## Cc1cc(C(F)(F)F)nn1CC(=O)N1CCC(c2nc(C[S+]([O-])c3cccc4cccnc34)cs2)CC1 (stereo not shown) [Compound I-12, 1-(4-{4-[(Quinolin-8-ylsulphinyl)methyl]-1,3-thiazol-2-yl}piperidin-1-yl)-2-[5-methyl-3-(trifluoromethyl)-1H-pyrazol-1-yl]ethanone]
[1]; [3]
  chromatographic logP: 2.48
[1]; [4]
  chromatographic logP: 2.48

## Cc1ccc(C)c(NC(=S)N2CCC(c3nc(CSc4nnnn4-c4ccccc4)cs3)CC2)c1 [Compound I-98]
[2]
  logP: 3.52*

## O=C(Cn1nc(C(F)(F)F)cc1C(F)(F)F)N1CCC(c2nc(CSc3nnnn3-c3ccccc3)cs2)CC1 [Compound I-34]
[2]
  logP: 3.8*

## Cc1ccc(C)c(NC(=O)N2CCC(c3nc(CSc4nnnn4-c4ccccc4)cs3)CC2)c1 [Compound I-84]
[2]
  logP: 3.26*
